This note sets out measurements from patent US20240343694A1, “PYRIMIDINE DERIVATIVE, METHOD FOR PREPARING SAME, AND PHARMACEUTICAL COMPOSITION FOR PREVENTING OR TREATING CANCER COMPRISING SAME AS ACTIVE INGREDIENT” (KOREA RESERARCH INSTITUTE OF CHEMICAL TECHNOLOGY, priority 2021, published 2024).

The target of one test is HER2 A775_G776insYVMA (Homo sapiens (Human), UniProt P04626, INS775YVMA). Kind of test: HTRF inhibitory activity against HER2 mutant enzyme. Format: biochemical. To be noted: recombinant enzyme, 37° C. for 2 hours. In outline: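 Recombinant HER2 A775_G776insYVMA preincubated with compound, then […] and biotinylated peptide ([…]) added; 2 h at 37 °C in Tris-HCl pH 7.5 buffer with MgCl2, DTT. HTRF detection (Eu anti-phosphotyrosine/streptavidin-XL665); IC50 from 7 concentrations.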
HER2 A775_G776insYVMA, sequence (P04626 other isoform, or with tags, fused parts or gaps del 1-675/ins YVMA behind 775 limits assumed): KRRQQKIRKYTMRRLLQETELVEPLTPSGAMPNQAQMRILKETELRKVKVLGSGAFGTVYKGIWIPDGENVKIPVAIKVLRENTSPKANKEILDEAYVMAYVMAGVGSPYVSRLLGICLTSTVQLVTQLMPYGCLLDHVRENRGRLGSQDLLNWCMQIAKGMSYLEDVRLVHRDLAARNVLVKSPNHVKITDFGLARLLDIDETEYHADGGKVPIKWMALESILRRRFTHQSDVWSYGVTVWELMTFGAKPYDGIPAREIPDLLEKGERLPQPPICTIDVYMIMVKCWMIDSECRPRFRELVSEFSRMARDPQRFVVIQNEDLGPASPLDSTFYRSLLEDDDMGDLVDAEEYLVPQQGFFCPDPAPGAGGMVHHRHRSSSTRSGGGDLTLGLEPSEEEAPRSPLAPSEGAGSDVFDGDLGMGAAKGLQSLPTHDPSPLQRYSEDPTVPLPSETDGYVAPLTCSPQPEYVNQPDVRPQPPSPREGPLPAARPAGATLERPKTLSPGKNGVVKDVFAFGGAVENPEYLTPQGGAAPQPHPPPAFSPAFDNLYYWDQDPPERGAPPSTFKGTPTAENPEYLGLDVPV

Test [1] has as its system Ba/F3 EGFR D770_N771insSVD. Kind of test: Growth inhibition of Ba/F3 EGFR mutant cells (CellTiter-Glo). Format: cell-based. Conditions: Ba/F3 EGFR-D770-N771ins_SVD, 72 hours. In outline:
(§1)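 Ba/F3 cells expressing either EGFR insertion mutant were seeded at 1,000 cells/well and dosed 24 h later at eight concentrations from 0 to 10 μM. After 72 h, viability was read by CellTiter-Glo ATP signal. IC50 (μM) was fitted from the eight-point curves.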

Test [2] has as its system Ba/F3 EGFR V769_D770insASV. Described as above. It counts as cell-based. To be noted: 72 hours. In outline:
as §1

The subject of a further test is Ba/F3 HER2 G776delinsVC. Kind of test: Growth inhibition of Ba/F3 HER2 mutant cells (CellTiter-Glo). Format: cell-based. Conditions: Mus musculus, BaF3, 72 hours. In outline: (§2)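 Ba/F3 cells carrying HER2 A775_G776insYVMA or G776delinsVC were seeded at 1,000 cells/well and dosed 24 h later at 0.01-10 μM (8 concentrations including 0). After 72 h, viability was read as cellular ATP by CellTiter-Glo luminescence, and IC50 values were calculated from the 8-point curves.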
Background: ATP-based viability assays read luminescence as a measure of living cells.

In test [3] the test system is Ba/F3 HER2 A775_G776insYVMA. The description is as above. It counts as cell-based. To be noted: Mus musculus, BaF3, 72 hours. In outline: as §2
A further test addresses EGFR A763_Y764insFHEA (Homo sapiens (Human), UniProt P00533, INS763FHEA). Kind of test: HTRF inhibitory activity against EGFR mutant enzyme (EGFR A763_Y764insFHEA). To be noted: recombinant enzyme, 37° C. for 2 hours. It counts as biochemical. In outline:
(§3)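 Recombinant EGFR del19 or A763_Y764insFHEA was premixed with compound in 50 mM Tris pH 7.5 with 7.5 mM MgCl2 and 1 mM DTT. ATP (50 mM as printed) and biotin-peptide (0.5 mM) were added and reacted 2 h at 37 °C. The HTRF 665/615 read used streptavidin-XL665 and Eu anti-phosphotyrosine. IC50 was fitted from 7 concentrations.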
(In general: In TR-FRET formats the signal depends on donor and acceptor labels being close together.)

Another test has as its target EGFR del19 (Homo sapiens (Human), UniProt P00533, DEL746-750). Kind of test: HTRF inhibitory activity against EGFR mutant enzyme (EGFR del19). It counts as biochemical. Conditions: recombinant enzyme, 37° C. for 2 hours. In outline:
as §3

A word on the IC50: it is the midpoint of a concentration-inhibition curve.

EGFR del19, sequence (P00533 other isoform, or with tags, fused parts or gaps del 1-668/del 746-750 limits assumed): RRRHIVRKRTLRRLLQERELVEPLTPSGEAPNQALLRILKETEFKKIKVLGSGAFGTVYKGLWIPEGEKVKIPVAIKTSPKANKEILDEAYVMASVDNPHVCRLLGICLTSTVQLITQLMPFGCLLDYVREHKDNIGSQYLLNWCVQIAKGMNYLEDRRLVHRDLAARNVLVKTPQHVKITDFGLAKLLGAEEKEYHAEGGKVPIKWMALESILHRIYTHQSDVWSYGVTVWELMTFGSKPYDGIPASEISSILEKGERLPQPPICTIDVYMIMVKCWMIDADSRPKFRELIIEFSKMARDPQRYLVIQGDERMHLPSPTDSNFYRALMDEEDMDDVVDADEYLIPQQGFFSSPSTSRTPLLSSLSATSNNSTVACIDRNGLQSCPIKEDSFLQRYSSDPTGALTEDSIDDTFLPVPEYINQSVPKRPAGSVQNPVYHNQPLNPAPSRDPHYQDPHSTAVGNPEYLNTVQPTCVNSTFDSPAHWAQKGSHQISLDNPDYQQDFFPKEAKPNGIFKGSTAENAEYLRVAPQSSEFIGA
EGFR A763_Y764insFHEA, sequence (P00533 other isoform, or with tags, fused parts or gaps del 1-694/ins FHEA behind 763 limits assumed): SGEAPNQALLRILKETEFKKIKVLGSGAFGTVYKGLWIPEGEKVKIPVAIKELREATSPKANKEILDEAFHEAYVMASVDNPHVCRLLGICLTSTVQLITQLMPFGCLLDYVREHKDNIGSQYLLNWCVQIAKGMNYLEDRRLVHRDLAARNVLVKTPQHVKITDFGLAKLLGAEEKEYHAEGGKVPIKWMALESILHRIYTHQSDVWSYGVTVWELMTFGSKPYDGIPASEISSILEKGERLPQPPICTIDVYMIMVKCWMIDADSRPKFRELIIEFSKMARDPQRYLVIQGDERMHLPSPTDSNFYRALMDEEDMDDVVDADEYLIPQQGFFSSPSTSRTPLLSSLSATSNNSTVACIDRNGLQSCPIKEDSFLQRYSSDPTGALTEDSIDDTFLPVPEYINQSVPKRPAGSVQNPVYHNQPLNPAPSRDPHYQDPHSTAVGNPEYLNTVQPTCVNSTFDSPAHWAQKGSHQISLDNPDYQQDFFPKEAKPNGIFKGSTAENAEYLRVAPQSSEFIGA

`C=CC(=O)Nc1cc(Nc2ncc(Cl)c(Nc3cccc(C)c3N(C)S(C)(=O)=O)n2)c(OC)cc1N(C)CCN(C)C` [Example 38, N-(5-((5-chloro-4-((3-methyl-2-(N-methylmethylsulfonamido)phenyl)amino)pyrimidin-2-yl)amino)-2-((2-(dimethylamino)ethyl)(methyl)amino)-4-methoxyphenyl)acrylamide]: the IC50 at HER2 A775_G776insYVMA is 14 nM; in test [1] it was 30 to 50 nM; in test [2], 30 to 50 nM; with Ba/F3 HER2 G776delinsVC it was below 10 nM; in test [3], 30 to 50 nM; on EGFR A763_Y764insFHEA, 2 nM. In addition, the half-inhibitory concentration (IC50) on EGFR del19 was below 1 nM.
For `C=CC(=O)Nc1cc(Nc2ncc(Cl)c(Nc3cccc(C)c3N(CC)S(C)(=O)=O)n2)c(OC)cc1N(C)CCN(C)C` [Example 39, N-(5-((5-chloro-4-((2-(N-ethylmethylsulfonamido)-3-methylphenyl)amino)pyrimidin-2-yl)amino)-2-((2-(dimethylamino)ethyl)(methyl)amino)-4-methoxyphenyl)acrylamide], the 50% inhibitory concentration (IC50) is 8 nM on HER2 A775_G776insYVMA; 30 to 50 nM in test [1]; below 10 nM in test [2]; below 10 nM in the test on Ba/F3 HER2 G776delinsVC; 30 to 50 nM in test [3]; below 1 nM at EGFR A763_Y764insFHEA. Besides, the IC50 on EGFR del19 was below 1 nM.
Take `C=CC(=O)Nc1cc(Nc2ncc(Cl)c(Nc3cccc(CC)c3NS(C)(=O)=O)n2)c(OC)cc1N(C)CCN(C)C` [Example 40, N-(5-((5-chloro-4-((3-ethyl-2-(methylsulfonamido)phenyl)amino)pyrimidin-2-yl)amino)-2-((2-(dimethylamino)ethyl)(methyl)amino)-4-methoxyphenyl)acrylamide]: the IC50 is 4 nM on HER2 A775_G776insYVMA; 30 to 50 nM in test [1]; 30 to 50 nM in test [2]; below 10 nM in the test on Ba/F3 HER2 G776delinsVC; 30 to 50 nM in test [3]; 1 nM at EGFR A763_Y764insFHEA. Further, the half-inhibitory concentration (IC50) at EGFR del19 is below 1 nM.
Regarding `C=CC(=O)Nc1cc(Nc2ncc(Cl)c(Nc3cccc(CC)c3N(C)S(C)(=O)=O)n2)c(OC)cc1N(C)CCN(C)C` [Example 41, N-(5-((5-chloro-4-((3-ethyl-2-(N-methylmethylsulfonamido)phenyl)amino)pyrimidin-2-yl)amino)-2-((2-(dimethylamino)ethyl)(methyl)amino)-4-methoxyphenyl)acrylamide], the IC50 is 9 nM at HER2 A775_G776insYVMA; 30 to 50 nM in test [1]; 30 to 50 nM in test [2]; below 10 nM in the test with Ba/F3 HER2 G776delinsVC; 50 to 100 nM in test [3]; 1 nM on EGFR A763_Y764insFHEA. The IC50 at EGFR del19 is below 1 nM.
With `C=CC(=O)Nc1cc(Nc2ncc(Cl)c(Nc3ccc(C)c(C)c3N(C)S(C)(=O)=O)n2)c(OC)cc1N(C)CCN(C)C` [Example 43, N-(5-((5-chloro-4-((3,4-dimethyl-2-(N-methylmethylsulfonamido)phenyl)amino)pyrimidin-2-yl)amino)-2-((2-(dimethylamino)ethyl)(methyl)amino)-4-methoxyphenyl)acrylamide], the IC50 at HER2 A775_G776insYVMA is 8 nM; in test [1] it was 50 to 100 nM; in test [2] it was below 10 nM; in the test with Ba/F3 HER2 G776delinsVC, below 10 nM; in test [3] it was 30 to 50 nM; on EGFR A763_Y764insFHEA, below 1 nM. The half-maximal inhibitory concentration (IC50) on EGFR del19 was below 1 nM.
As for `C=CC(=O)Nc1cc(Nc2ncc(Cl)c(Nc3ccc(C)cc3N(C)S(C)(=O)=O)n2)c(OC)cc1N(C)CCN(C)C` [Example 45, N-(5-((5-chloro-4-((4-methyl-2-(N-methylmethylsulfonamido)phenyl)amino)pyrimidin-2-yl)amino)-2-((2-(dimethylamino)ethyl)(methyl)amino)-4-methoxyphenyl)acrylamide], the IC50 at HER2 A775_G776insYVMA is 8 nM; in test [1], below 10 nM; in test [2], below 10 nM; with Ba/F3 HER2 G776delinsVC, below 10 nM; in test [3], below 10 nM; on EGFR A763_Y764insFHEA it was below 1 nM. Further, at EGFR del19, the half-inhibitory concentration (IC50) is below 1 nM.
On to `C=CC(=O)Nc1cc(Nc2ncc(Cl)c(Nc3ccc(C)cc3NS(C)(=O)=O)n2)c(OC)cc1N(C)CCN(C)C` [Example 46, N-(5-((5-chloro-4-((4-methyl-2-(methylsulfonamido)phenyl)amino)pyrimidin-2-yl)amino)-2-((2-(dimethylamino)ethyl)(methyl)amino)-4-methoxyphenyl)acrylamide], for which the IC50 at HER2 A775_G776insYVMA was 2 nM; in test [1], below 10 nM; in test [2] it was 30 to 50 nM; with Ba/F3 HER2 G776delinsVC it was 30 to 50 nM; in test [3] it was below 10 nM; at EGFR A763_Y764insFHEA, below 1 nM. For the same compound, at EGFR del19, the half-maximal inhibitory concentration (IC50) was below 1 nM.
For the compound `C=CC(=O)Nc1cc(Nc2ncc(Cl)c(Nc3cccc4c3N(S(C)(=O)=O)CCC4)n2)c(OC)cc1N(C)CCN(C)C` [Example 47, N-(5-((5-chloro-4-((1-(methylsulfonyl)-1,2,3,4-tetrahydroquinolin-8-yl)amino)pyrimidin-2-yl)amino)-2-((2-(dimethylamino)ethyl)(methyl)amino)-4-methoxyphenyl)acrylamide], the IC50 was 6 nM at HER2 A775_G776insYVMA; below 10 nM in test [1]; below 10 nM in test [2]; below 10 nM in the test on Ba/F3 HER2 G776delinsVC; below 10 nM in test [3]; below 1 nM at EGFR A763_Y764insFHEA. Also, at EGFR del19, the half-inhibitory concentration (IC50) is below 1 nM.
As for `C=CC(=O)Nc1cc(Nc2ncc(Cl)c(Nc3cccc4c3N(S(C)(=O)=O)CCC4)n2)c(OC)cc1N(C)CCNC` [Example 48, N-(5-((5-chloro-4-((1-(methylsulfonyl)-1,2,3,4-tetrahydroquinolin-8-yl)amino)pyrimidin-2-yl)amino)-4-methoxy-2-(methyl(2-(methylamino)ethyl)amino)phenyl)acrylamide], the IC50 at HER2 A775_G776insYVMA was 20 nM; in test [1] it was 50 to 100 nM; in test [2] it was 50 to 100 nM; in the test on Ba/F3 HER2 G776delinsVC it was below 10 nM; in test [3] it was 50 to 100 nM; at EGFR A763_Y764insFHEA, 7 nM. For the same compound, the IC50 at EGFR del19 was found to be 3 nM.
Turning to `C=CC(=O)Nc1cc(Nc2ncc(Cl)c(Nc3cccc4c3N(S(C)(=O)=O)CCC4)n2)c(OC)cc1N1CCC(N(C)C)CC1` [Example 49, N-(5-((5-chloro-4-((1-(methylsulfonyl)-1,2,3,4-tetrahydroquinolin-8-yl)amino)pyrimidin-2-yl)amino)-2-(4-(dimethylamino)piperidin-1-yl)-4-methoxyphenyl)acrylamide], the IC50 at HER2 A775_G776insYVMA was 60 nM; in test [1], 50 to 100 nM; in test [2], 50 to 100 nM; in the test with Ba/F3 HER2 G776delinsVC, below 10 nM; in test [3], 50 to 100 nM; at EGFR A763_Y764insFHEA it was 10 nM. Also, at EGFR del19, the IC50 came out at 0.1 nM.
With `C=CC(=O)Nc1cc(Nc2ncc(Cl)c(Nc3cccc4c3N(S(C)(=O)=O)CCC4)n2)c(OC)cc1N1CCC(N2CCN(C)CC2)CC1` [Example 50, N-(5-((5-chloro-4-((1-(methylsulfonyl)-1,2,3,4-tetrahydroquinolin-8-yl)amino)pyrimidin-2-yl)amino)-4-methoxy-2-(4-(4-methylpiperazin-1-yl)piperidin-1-yl)phenyl)acrylamide], the IC50 on HER2 A775_G776insYVMA is 60 nM; in test [1] it was 50 to 100 nM; in test [2], 50 to 100 nM; with Ba/F3 HER2 G776delinsVC, below 10 nM; in test [3], 50 to 100 nM; on EGFR A763_Y764insFHEA, 3 nM. At EGFR del19, the IC50 was below 1 nM.
